In US7553823B2, “C-pyrazole A2A receptor agonists” (CV Therapeutics, Inc., priority 1999, dated 2009):
Read-outs that look alike come from different tables or passages of the source.

Columns and labels:
A1 AdoR [1] = target: T1, A1 AdoR (Rattus norvegicus, UniProt P25099); experiment: A-V nodal conduction time (negative dromotropic effect) in rat isolated perfused hearts; settings: Compound 18 0.1-30 μM, CVT510 100-400 nM
T1 construct: from tissue; host or cells: Sprague Dawley rat isolated perfused heart
T1 sequence (P25099 1-326): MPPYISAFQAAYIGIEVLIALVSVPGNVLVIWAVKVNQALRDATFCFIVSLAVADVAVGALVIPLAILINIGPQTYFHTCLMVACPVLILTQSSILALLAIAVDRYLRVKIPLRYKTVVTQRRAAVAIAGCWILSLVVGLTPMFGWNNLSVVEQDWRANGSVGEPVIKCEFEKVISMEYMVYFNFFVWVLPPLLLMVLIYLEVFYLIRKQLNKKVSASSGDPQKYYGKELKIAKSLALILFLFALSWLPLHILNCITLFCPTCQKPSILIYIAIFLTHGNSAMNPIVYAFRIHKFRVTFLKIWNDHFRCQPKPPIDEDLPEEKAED
Procedure: In experiments in which A1 adenosine receptor-mediated negative dromotropic effect was measured, atrial and ventricular surface electrograms were recorded during constant atrial pacing. The effect of various adenosine receptor agonists on atrioventricular conduction time was determined as described previously by Jenkins and Belardinelli Circ. Res. 63: 97-116 (1988).
(§1) Rats and guinea pigs, of either sex weighing from 230 to 260 grams and 300 to 350 grams, respectively, were used in this study. Animals were anesthetized by peritoneal injection of a cocktail containing ketamine and xylazine (ketamine 100 mg, xylazine 20 mg/ml). The chest was opened and the heart quickly removed. The heart was briefly rinse in ice-cold Krebs-Henseleit solution (see below), and the aorta cannulated. […]
(§2) A1 adenosine receptor-mediated depression of A-V nodal conduction time (negative dromotropic effect) was measured. Atrial and ventricular surface electrograms in rats and H is bundle electrogram in guinea pigs, were recorded during constant atrial pacing. The effects of Compound 18 on atrioventricular conduction time and stimulus-to-His-bundle (S-H interval) were determined as described previously by Jenkins and Belardinelli (1988).
The effects of Compound 18 on coronary conductance (A2A effect) and atrioventricular conduction time or stimulus-to-His-bundle (S-H) interval (A1 effect) was then determined. […]

A2A AdoR [2] = experiment: Closing statement of Example 8 on potency and efficacy as A2A AdoR agonist coronary vasodilator (test not specified)
human A2A AdoR = human A2A AdoR (Homo sapiens, UniProt P29274); experiment: Competition binding, [3H]ZM241385 binding sites on HEK-hA2AAR cell membranes; settings: for Ki: HEK-hA2AAR Cells, [3H]ZM241385, Gpp(NH)p 100 μM
human A2A AdoR, sequence (P29274 whole entry): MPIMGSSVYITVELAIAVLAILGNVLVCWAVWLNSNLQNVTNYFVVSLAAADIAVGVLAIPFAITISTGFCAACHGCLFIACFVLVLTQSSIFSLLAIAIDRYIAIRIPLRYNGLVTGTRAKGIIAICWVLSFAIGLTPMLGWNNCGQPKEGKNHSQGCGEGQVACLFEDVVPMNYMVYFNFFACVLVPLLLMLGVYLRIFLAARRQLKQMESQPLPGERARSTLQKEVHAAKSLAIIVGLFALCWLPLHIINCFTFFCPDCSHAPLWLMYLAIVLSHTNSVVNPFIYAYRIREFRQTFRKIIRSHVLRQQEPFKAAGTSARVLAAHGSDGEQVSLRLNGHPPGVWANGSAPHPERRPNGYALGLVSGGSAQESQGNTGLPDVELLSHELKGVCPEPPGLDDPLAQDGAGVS
Procedure: To make membranes, cells were detached from the culture plates into ice-cold 50 mmol/L Tris-HCI buffer (pH7.4). The cell suspensions were homogenized with Polytron at setting 4 for 30 seconds, and spun at 48,000 g for 15 minutes. The pellets were washed three times by re-suspension in ice-cold Tris-HCI buffer and centrifugation. The final pellet was re-suspended in a small volume of Tris-HCI, aliquoted and frozen at −80° C. until used for receptor binding assays. The protein concentration of membrane suspensions was determined using the Bradford method (Bio-Rad) with bovine serum as standards.
At the end of incubation, bound and free radioligands were separated by filtration through Whatman GF/C glass fiber filters using a Brandel tissue harvester (Gaithersburg, Md.). Triplicate determinations were performed for each concentration of the competing agent.
The affinity (Ki) of various CVT compounds for the A1 and A2A adenosine receptor were determined by their potency to compete for [^3H]CPX (A1) or [^3H]ZM241385 (A2A) binding sites on membranes derived from CHO-hA1AdoR, PC12 or HEK-HA2AAdoR cells.

human A1 AdoR = target: T2, human A1 AdoR (Homo sapiens, UniProt P30542); experiment: Competition binding, [3H]DPCPX binding sites on CHO-hA1AdoR cell membranes; settings: Gpp(NH)p 100 μM
T2 construct: expressed in transfected cells
T2 sequence (P30542 1-326): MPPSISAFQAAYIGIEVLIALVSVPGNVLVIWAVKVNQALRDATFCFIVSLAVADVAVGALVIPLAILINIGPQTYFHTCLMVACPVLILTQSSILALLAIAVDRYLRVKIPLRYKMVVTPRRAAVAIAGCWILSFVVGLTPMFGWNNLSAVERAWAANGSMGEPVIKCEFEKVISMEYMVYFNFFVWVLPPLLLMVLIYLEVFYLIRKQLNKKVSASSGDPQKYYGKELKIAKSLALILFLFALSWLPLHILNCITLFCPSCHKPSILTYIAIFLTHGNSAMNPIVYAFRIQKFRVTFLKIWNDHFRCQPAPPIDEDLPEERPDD

A2A AdoR [3] = experiment: Coronary blood flow and reversal time of coronary vasodilation in open-chest anesthetized pigs; settings: pig, intracoronary infusion 50 μg/kg/min
Procedure: Farm pigs weighing 22-27 kg were used in this study. […] In addition, animals were used in accordance with the guidelines of the University of Kentucky Institutional Animal Care and Use Protocol.
Anesthesia was anesthetized with ketamine (20 mg/kg, i.m.) and sodium pentobarbital (15-18 mg/kg i.v.). Anesthesia was maintained with additional sodium pentobarbital (1.5-2 mg/kg, i.v.) every 15-20 minutes. Ventilation was maintained via a tracheotomy using a mixture of room air and 100% O2. Tidal volume, respiratory rate and fraction of O2 in inspired air were adjusted to maintain normal arterial blood gas (ABG) and pH values. […] Lactate Ringers solution was administered via an ear or femoral vein, at 5-7 ml/kg/min after a initial bolus of 300-400 ml. A catheter was inserted into the femoral artery to monitor arterial blood pressure and to obtain ABG samples.
The heart was exposed through a median sternotomy, and suspended in a pericardial cradle. Left ventricular pressure (LVP) was measured with a 5F high fidelity pressure sensitive tip transducer (Millar Instruments, Houston, Tex.) placed in the left ventricular cavity via the apex and secured with a purse string suture. A segment of the left anterior descending coronary artery (LAD), proximal to the origin of the first diagonal branch, was dissected free of, surrounding tissue. A transmit time perivascular flow probe (Transonic Systems Inc., Ithaca, N.Y.) was placed around this segment to measure coronary blood flow (CBF). Proximal to the flow probe a 24 g modified angiocatheter was inserted for intracoronary infusions. […] A2A AdoR agonists were dissolved in DMSO to produce stock concentrations of 1-5 mM, which were diluted in 0.9% saline and infused at rates of 1-1.5 ml/min. The A2A AdoR agonists were administered intracoronary. To maintain blood pressure constant, phenylephrine was administered intravenously. The phenylephrine stock solution (30 mM) was prepared in distilled water.
Prior to initiating the experiment, a 30-minute stabilization period followed the completion of all instrumentation. After obtaining the baseline hemodynamic data the first intracoronary infusion of an A2A ADOR agonist was initiated. Infusions were maintained for 4-5 minutes to allow LAD CBF to reach a steadystate, after which the infusion was terminated. The time to recovery of 50% (t 0.5) and 90% (t 0.9) of baseline CBF were recorded. Ten to 15 minutes after CBF returned to pre-drug values a second infusion with a different agonist was started. […] The effect of a maximum of three different agonists was determined in each experiment.

A2A receptor = A2A receptor (Sus scrofa, UniProt K9IW67); experiment: Affinity for the A2A receptor in a pig striatum membrane prep (displacement of tritiated ZM 241385); format: binding; settings: pig striatal membranes, tritiated ZM 241385 2 nM, 23 C 2 h; read-out: A2a Ki
A2A receptor, sequence (K9IW67 1-409): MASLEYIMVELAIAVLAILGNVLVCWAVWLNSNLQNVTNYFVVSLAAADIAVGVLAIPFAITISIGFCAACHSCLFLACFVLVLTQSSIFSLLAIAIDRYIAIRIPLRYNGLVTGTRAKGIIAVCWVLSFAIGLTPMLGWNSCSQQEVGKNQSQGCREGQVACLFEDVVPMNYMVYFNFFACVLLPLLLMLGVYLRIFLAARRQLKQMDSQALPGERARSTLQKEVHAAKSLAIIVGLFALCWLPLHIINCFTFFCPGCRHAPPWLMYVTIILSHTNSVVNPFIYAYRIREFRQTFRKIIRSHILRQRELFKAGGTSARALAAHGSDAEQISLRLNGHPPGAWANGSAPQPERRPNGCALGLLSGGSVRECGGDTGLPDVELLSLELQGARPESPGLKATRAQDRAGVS
Procedure: Compounds of this invention were assayed to determine their affinity for the A2A receptor in a pig striatum membrane prep. Briefly, 0.2 mg of pig striatal membranes were treated with adenosine deaminase and 50 mM Tris buffer (pH=7.4) followed by mixing. […] After incubation at 23 C for 2 h, then the solutions were filtered using a membrane harvester using multiple washing of the membranes (3×). The filter disks were counted in scintillation cocktail affording the amount of displacement of tritiated ZM by the competitive binding compounds of this invention. Greater than a 5 point curve was used to generate IC50's and the number of experiments is indicated in the column marked in Table 1 below.

A1 AdoR [4] = target: T3, A1 AdoR (Cavia porcellus, UniProt P47745); experiment: Stimulus-to-His-bundle (S-H) interval in guinea pig isolated perfused hearts; settings: concentrations as high as 50 μM
T3 construct: from tissue; host or cells: Hartley guinea pig isolated perfused heart
T3 sequence (P47745 1-326): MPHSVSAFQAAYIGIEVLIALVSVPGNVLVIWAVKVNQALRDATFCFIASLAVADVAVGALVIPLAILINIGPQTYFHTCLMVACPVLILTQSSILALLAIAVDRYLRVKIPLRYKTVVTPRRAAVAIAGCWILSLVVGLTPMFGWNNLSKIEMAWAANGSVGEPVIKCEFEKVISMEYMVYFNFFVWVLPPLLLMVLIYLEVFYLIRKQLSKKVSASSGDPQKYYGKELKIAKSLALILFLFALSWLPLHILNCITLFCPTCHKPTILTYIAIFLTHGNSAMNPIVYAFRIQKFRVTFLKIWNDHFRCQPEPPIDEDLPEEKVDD
Procedure: as §1, §2
The effects of Compound 18 on coronary conductance (A2A effect) and atrioventricular conduction time or stimulus-to-His-bundle (S-H) interval (A1 effect) was then determined. […] In each experiment, concentration-response relationship of Compound 18 (n=5 rats, 5 guinea pigs) to increase coronary conductance and to prolong A-V conduction time or S-H interval was determined. […]

A2A AdoR [5] = target: A2A AdoR (Cavia porcellus, UniProt P46616); experiment: Increase of coronary conductance in guinea pig isolated perfused hearts
A2A AdoR (Cavia porcellus, UniProt P46616), sequence (P46616 whole entry, the tested form may be a part): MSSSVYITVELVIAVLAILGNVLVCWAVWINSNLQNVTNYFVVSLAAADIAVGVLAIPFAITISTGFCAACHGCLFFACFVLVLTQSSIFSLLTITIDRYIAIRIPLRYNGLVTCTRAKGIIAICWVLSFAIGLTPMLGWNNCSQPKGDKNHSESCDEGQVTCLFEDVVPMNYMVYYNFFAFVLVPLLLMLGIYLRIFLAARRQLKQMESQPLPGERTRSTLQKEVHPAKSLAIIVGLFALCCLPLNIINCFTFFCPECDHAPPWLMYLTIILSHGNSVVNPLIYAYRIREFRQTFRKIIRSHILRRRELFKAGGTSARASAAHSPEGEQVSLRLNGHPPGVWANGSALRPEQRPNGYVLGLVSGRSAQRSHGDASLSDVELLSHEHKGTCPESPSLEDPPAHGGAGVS
Procedure: (§3) Adult Sprague Dawley rats and Hartley guinea pigs of either sex weighing from 230 to 260 grams and 300 to 350 grams, respectively were used in this study. Animals were anesthetized by peritoneal injection of a cocktail containing ketamine and xylazine (ketamine 100 mg, xylazin 20 mg/ml). The chest was opened and the heart quickly removed. The heart was briefly rinse in ice-cold Krebs-Henseleit solution (see below), and the aorta cannulated. […] The heart was electrically paced at a fixed cycle length of 340 ms (250 beats/min) using a bipolar electrode place on the left atrium. The electrical stimuli were generated by a Grass stimulator (Model S48, W. Warwick, R.I.) and delivered through a Stimuli Isolation Unit (Model SIU5, Astro-Med, Inc., NY) as square-wave pulses of 3-msec in duration and amplitude of at least twice the threshold intensity.
Coronary perfusion pressure (CPP) was measured using a pressure transducer, connected to the aortic cannula via a T-connector positioned approximately 3 cm above the heart. Coronary perfusion pressure was monitored throughout the experiment and recorded either on a chart recorder (Gould Recorder 2200S) or a computerized recording system (PowerLab/4S, ADinstruments Pty Ltd, Australia). Only hearts with CPP ranging from 60 to 85 mmHg (in the absence of drugs) were used in the study. […]

A2A adenosine receptor = A2A adenosine receptor (Rattus norvegicus, UniProt P30543); experiment: Reversal time of coronary vasodilation after bolus injection in rat isolated perfused hearts; settings: rat isolated perfused hearts, bolus into perfusion line
A2A adenosine receptor, sequence (P30543 whole entry, the tested form may be a part): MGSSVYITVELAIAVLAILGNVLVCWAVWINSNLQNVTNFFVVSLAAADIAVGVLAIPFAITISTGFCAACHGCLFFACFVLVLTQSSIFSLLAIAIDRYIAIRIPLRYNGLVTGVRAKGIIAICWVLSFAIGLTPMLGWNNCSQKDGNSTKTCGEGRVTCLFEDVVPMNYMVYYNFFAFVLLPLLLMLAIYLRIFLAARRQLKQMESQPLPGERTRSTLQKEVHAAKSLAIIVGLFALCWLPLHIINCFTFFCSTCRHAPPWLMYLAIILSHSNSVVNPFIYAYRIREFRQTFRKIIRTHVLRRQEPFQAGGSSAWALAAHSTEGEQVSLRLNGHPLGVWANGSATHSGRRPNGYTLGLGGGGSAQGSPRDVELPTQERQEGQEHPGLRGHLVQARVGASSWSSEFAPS
Procedure: Animals were anesthetized by peritoneal injection of a cocktail containing ketamine and xylazine (ketamine 100 mg, xylazine 20 mg/ml). The chest was opened and the heart quickly removed. The heart was briefly rinse in ice-cold Krebs-Henseleit solution (see below), and the aorta cannulated. […] The heart was electrically paced at a fixed cycle length of 340 ms (250 beats/min) using a bipolar electrode place on the left atrium. The electrical stimuli were generated by a Grass stimulator (Model S48, W. Warwick, R.I) and delivered through a Stimuli Isolation Unit (Model SIU5, Astro-Med, Inc., NY) as square-wave pulses of 3 msec in duration and amplitude of at least twice the threshold intensity.
Coronary perfusion pressure (CPP) was measured using a pressure transducer, connected to the aortic cannula via a T-connector positioned approximately 3 cm above the heart. Coronary perfusion pressure was monitored throughout the experiment and recorded either on a chart recorder (Gould Recorder 2200S) or a computerized recording system (PowerLab/4S, ADInstruments Pty Ltd, Australia). Only hearts with CPP ranging from 60 to 85 mmHg (in the absence of drugs) were used in the study.
Protocol: Bolus injections. […] The times to 50% (t 0.5) and 90% (t 0.9) reversal of the decrease in CPP were measured. Each heart was exposed to a maximum of three vasodilators.

A2A AdoR [6] = target: A2A AdoR (Rattus norvegicus, UniProt P30543); experiment: Increase of coronary conductance in rat isolated perfused hearts
A2A AdoR (Rattus norvegicus, UniProt P30543), sequence (P30543 whole entry, the tested form may be a part): as above
Procedure: as §3
Coronary perfusion pressure (CPP) was measured using a pressure transducer, connected to the aortic cannula via a T-connector positioned approximately 3 cm above the heart. Coronary perfusion pressure was monitored throughout the experiment and recorded either on a chart recorder (Gould Recorder 2200S) or a computerized recording system (PowerLab/4S, ADinstruments Pty Ltd, Australia). Only hearts with CPP ranging from 60 to 85 mmHg (in the absence of drugs) were used in the study.
One concentration was made from the stock solution by dilution into saline to yield solution of either 2×10^−4 or 2×10^−5 M. These solutions were injected into the perfusion line of the apparatus as boluses of 20 μl. In some experiments the solutions were placed into a 30 ml glass syringe and the drugs were infused at rates necessary to achieve the desired perfusate concentrations (e.g, 10, 100 nM, etc).
Hearts were instrumented for continuous recording of coronary perfusion pressure (A2A response) and atrioventricular (A-V) conduction time or S-H interval (A1 response).

SMILES	effect on A-V nodal conduction time (A1 AdoR [1])	agonist efficacy to cause coronary vasodilation (A2A AdoR [2])	less potent than the prototypical agonist CGS21680 (A2A AdoR [2]; relative to CGS21680) [fold]	greater affinity for A2A than A1 AdoR (human A2A AdoR; A2A vs A1 AdoR) [fold]	Ki (human A2A AdoR; Binding Affinity Ki) [nM]	Ki (human A2A AdoR; Binding Affinity pKi ± SEM) [nM]	Ki (human A1 AdoR; read-out: Binding Affinity Ki, CHO-hA1AR) [nM]	Ki (human A1 AdoR; read-out: Binding Affinity pKi ± SEM, CHO-hA1AR (converted)) [nM]	CBF ("Fold Increase") above baseline, maximal (A2A AdoR [3]) [fold]	t0.5, time to 50% reversal of the increase in coronary blood flow (A2A AdoR [3]) [min]	t0.9, time to 90% reversal of the increase in coronary blood flow (A2A AdoR [3]) [min]	Ki (A2A receptor) [nM]	effect on S-H interval (A1 AdoR [4])	EC50 (A2A AdoR [5]) [nM]	t 0.5, time to 50% reversal of the increase in coronary conductance (A2A adenosine receptor) [min]	t 0.9, time to 90% reversal of the increase in coronary conductance (A2A adenosine receptor) [min]	EC50 (A2A AdoR [6]; EC50 to increase coronary conductance in rat hearts, Example 7, n=5 rats) [nM]	EC50 (A2A AdoR [6]; Potency (EC50) to increase coronary conductance, Rat, rat isolated perfused hearts, Table 3) [nM]	effect on coronary conductance (A2A AdoR [6]; isolated perfused hearts (36 rats and 18 guinea pigs), atrial cycle length 340 msec)	relative potency in increasing coronary conductance (A2A AdoR [6]; isolated perfused hearts, rat and guinea pig)
OC[C@H]1OC(n2cnc3c(N[C@@H]4CCOC4)ncnc32)[C@H](O)[C@@H]1O (stereo partly drawn) [CVT510, 2-{6-[((3R)oxolan-3-yl)amino]purin-9-yl}(4S,3R,5R)-5-(hydroxymethyl)oxolane-3,4-diol, reference compound]	significantly prolonged	–	–	–	–	–	–	–	–	–	–	–	–	–	–	–	–	–	–	–
CCCCCn1cc(-c2nc(N)c3ncn([C@@H]4O[C@H](CO)[C@@H](O)[C@H]4O)c3n2)cn1 [Compound 18, (4S,2R,3R,5R)-2-[6-amino-2-(1-pentylpyrazol-4-yl)purin-9 yl]-5-(hydroxymethyl)oxolane-3,4-diol]	did not prolong	full agonists	10	> 2	2900	2880	5840	5750	3.33 ± 0.58	3.1 ± 0.9	12.0 ± 1.0	7090 ± 780	no prolongation	203 ± 22	3.4 ± 0.5	8.4 ± 2.2	68.9 ± 9.6	67.9 ± 16.7	concentration-dependent increase	about as potent as adenosine
